Laboratory results from paper PMC10057391, “Novel ^68Ga-Labeled Pyridine-Based Fibroblast Activation Protein-Targeted Tracers with High Tumor-to-Background Contrast” (Pharmaceuticals, 2023).
Like-named read-outs stand apart in the source and are kept apart here. Each block holds one molecule with its values, some of them ahead of it.

What was measured:
recombinant human FAP = molecular target: T1, recombinant human FAP (Homo sapiens, UniProt Q12884); assay: In vitro FAP fluorescence enzyme inhibition assay (Suc-Gly-Pro-AMC substrate); assay type: biochemical; conditions: nonradioactive Ga-complexed standards
T1 construct: purchased Bio-legend, San Diego, CA, USA
T1 sequence (Q12884 1-760): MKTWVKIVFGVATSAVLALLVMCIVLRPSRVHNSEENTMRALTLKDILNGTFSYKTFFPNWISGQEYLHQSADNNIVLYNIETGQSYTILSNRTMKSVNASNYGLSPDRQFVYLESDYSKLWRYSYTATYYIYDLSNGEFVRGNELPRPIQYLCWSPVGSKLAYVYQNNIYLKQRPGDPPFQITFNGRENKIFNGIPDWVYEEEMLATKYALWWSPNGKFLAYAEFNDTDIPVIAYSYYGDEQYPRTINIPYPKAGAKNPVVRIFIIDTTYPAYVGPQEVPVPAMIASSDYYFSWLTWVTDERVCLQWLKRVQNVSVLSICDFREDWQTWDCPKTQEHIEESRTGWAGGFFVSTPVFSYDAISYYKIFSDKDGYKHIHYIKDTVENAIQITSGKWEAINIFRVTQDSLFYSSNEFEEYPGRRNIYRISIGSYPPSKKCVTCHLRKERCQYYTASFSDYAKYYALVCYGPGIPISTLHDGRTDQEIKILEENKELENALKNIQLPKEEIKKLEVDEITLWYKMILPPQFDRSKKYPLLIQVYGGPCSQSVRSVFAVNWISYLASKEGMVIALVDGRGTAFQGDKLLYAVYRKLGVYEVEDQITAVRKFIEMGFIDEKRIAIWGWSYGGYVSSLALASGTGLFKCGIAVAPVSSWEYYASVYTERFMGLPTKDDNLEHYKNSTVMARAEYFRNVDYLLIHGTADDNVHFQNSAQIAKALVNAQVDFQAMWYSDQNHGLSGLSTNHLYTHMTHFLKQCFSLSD
Method: The binding affinities of Ga-AV02053 and Ga-AV02070 to human FAP were measured by an enzyme inhibition assay using Suc-Gly-Pro-AMC as the FAP substrate. The human FAP enzymatic activity on the substrate was inhibited by Ga-AV02053 and Ga-AV02070 in a dose dependent-manner (Figure 2).
The half maximal inhibitory concentration (IC50) values of the tested compounds for FAP were measured by in vitro enzymatic assay. The recombinant human FAP (Bio-legend, San Diego, CA, USA; 0.2 µg/mL, 50 µL) was added into costar 96-well plate. PBS and varied concentrations (0.2 pM to 2 µM) of tested nonradioactive Ga-complexed standards were added to each well (in duplicate) containing the recombinant human FAP. After being incubated for 30 min at 37 °C, 50 µL of Suc-Gly-Pro-AMC (2 µM, Bachem, Torrance, CA, USA) was added to each well. The fluorescent signals were acquired at 15, 30, 45, and 60 min using FlexStation 3 Multi-Mode Microplate Reader with excitation at 380 nm and emission at 460 nm. The IC50 (FAP) values were calculated using “nonlinear fit model” built-in model in GraphPad Prism 7.02 software.

[1] = LogD7.4 measurement, shake flask method (n-octanol/PBS pH 7.4); assay type: physicochemical; conditions: n-octanol / phosphate-buffered saline pH 7.4, shake flask
From the text: The lipophilicity of ^68Ga-labeled AV02053, AV02070, and FAPI-04 were estimated by measuring their LogD7.4 values using the shake flask method with n-octanol and phosphate-buffered saline (pH 7.4). The LogD7.4 values of [^68Ga]Ga-AV02053, [^68Ga]Ga-AV02070, and [^68Ga]Ga-FAPI-04 were −3.75 ± 0.16, −3.45 ± 0.10, and −1.02 ± 0.35, respectively. The values indicate that these ^68Ga-labeled tracers are hydrophilic, and the pyridine-based FAP-targeted tracers, [^68Ga]Ga-AV02053 and [^68Ga]Ga-AV02070, are more hydrophilic than [^68Ga]Ga-FAPI-04.
The lipophilicity characteristics of the ^68Ga-labeled pyridine-based FAPIs were determined by calculating the logarithm of the distribution coefficient (logD) in n-octanol/phosphate-buffered saline (PBS) of pH 7.4. Purified ^68Ga-labeled tracer (50 µL) was added into a test tube containing 1 mL n-octanol and 1 mL PBS. The mixture was vortexed, followed by centrifugation for 5 min at 3000 rpm. The two layers were then collected separately, and the radioactivity was counted using a Perkin Elmer (Waltham, MA, USA) Wizard2 2480 automatic gamma counter. After adjusting the counts to background and calculating the ratio (D) of the activity of the organic to that of the aqueous phase, the logD values were then calculated.

[2] = test system: HEK293T:hFAP tumor xenografts; assay: Ex vivo biodistribution and blocking study in HEK293T:hFAP tumor-bearing mice; conditions: 1 h post-injection; for average kidney uptake: range given for the two tracers together; for tumor uptake: HEK293T:hFAP tumor; for average tumor uptake with co-injection of FAPI-04 / reduction of average tumor uptake by co-injection of FAPI-04: blocking, FAPI-04 250 µg co-injected
Method: Biodistribution studies were conducted at 1 h post-injection with [^68Ga]Ga-AV02053 and [^68Ga]Ga-AV02070 in HEK293T:hFAP tumor-bearing mice, and the data are compared with those obtained previously using [^68Ga]Ga-FAPI-04 (Figure 4 and Figure 5 and Table S4). The results are consistent with the observations from their PET images. Except tumor and kidneys (1.35–1.85%ID/g), the average uptake values of [^68Ga]Ga-AV02053 and [^68Ga]Ga-AV02070 in all other collected organs/tissues were <0.6%ID/g. The tumor uptake values of [^68Ga]Ga-AV02053, [^68Ga]Ga-AV02070, and [^68Ga]Ga-FAPI-04 were 5.60 ± 1.12, 7.93 ± 1.88, and 12.5 ± 2.00%ID/g, respectively. […] This also led to higher tumor-to-blood, tumor-to-muscle and tumor-to-bone uptake ratios for [^68Ga]Ga-AV02053 (25.2 ± 1.97, 51.2 ± 19.8 and 38.1 ± 5.03, respectively) and [^68Ga]Ga-AV02070 (22.9 ± 10.1, 45.7 ± 9.88 and 34.3 ± 7.35, respectively) than [^68Ga]Ga-FAPI-04 (11.7 ± 2.04, 18.8 ± 4.09 and 3.93 ± 1.16, respectively) (p < 0.05).
(§1) Imaging and biodistribution studies were performed using male NOD.Cg-Rag1tm1Mom Il2rgtm1Wjl/SzJ (NRG) mice following previously published procedures. The experiments were conducted according to the guidelines established by the Canadian Council on Animal Care and approved by Animal Ethics Committee of the University of British Columbia. The mice were briefly sedated by inhalation of 2.5% isoflurane in oxygen, and HEK293T:hFAP cells (8.5 × 10^6 cells) were inoculated subcutaneously behind the left shoulder. When the tumor grew to 5–8 mm in ~3 weeks, the mice were used for PET/CT imaging and biodistribution studies.
For biodistribution studies, the mice were injected with the radiotracer (~2–4 MBq), as described above. For the blocking study, the mice were co-injected with 250 μg of FAPI-04. At 1 h post-injection, the mice were euthanized by CO2 inhalation. Blood was withdrawn by cardiac puncture, and organs/tissues of interest were collected, weighed, and counted using a Perkin Elmer (Waltham, MA, USA) Wizard2 2480 automatic gamma counter.

[3] = test system: HEK293T:hFAP tumor xenografts; assay: PET/CT imaging in mice bearing HEK293T:hFAP tumor xenografts; assay type: in vivo; conditions: PET imaging and biodistribution, 1 h post-injection
Method: Both tracers were excreted primarily through the renal pathway and had very low background uptake in normal organs/tissues. Although [^68Ga]Ga-AV02053 and [^68Ga]Ga-AV02070 had lower tumor uptake than that of previously reported [^68Ga]Ga-FAPI-04, both of them had much lower background uptake, resulting in better tumor-to-background contrast than that of [^68Ga]Ga-FAPI-04 (Figure 3).
as §1
PET/CT imaging experiments were carried out using a Siemens (Knoxville, TN, USA) Inveon micro PET/CT scanner. Each tumor-bearing mouse was injected with ~4–6 MBq of ^68Ga-labeled tracer through a lateral caudal tail vein under 2.5% isoflurane in oxygen anesthesia, followed by recovery and then roamed freely in its cage during the uptake period. […]

FAP = test system: FAP; design: method as in PMID 24617858; conditions: cited from earlier work
[4] = test system: HEK293T:hFAP tumor xenografts; design: method as in PMID 36770755; conditions: 1 h post-injection, cited from earlier work

SMILES: N#C[C@@H]1CCCN1C(=O)CNC(=O)c1ccncc1 [(pyridine-4-carbonyl)glycyl-(2S)-cyanopyrrolidine]
IC50 (FAP): 63 nM

SMILES: CN(CCN(C)c1ccc(C(=O)NCC(=O)N2CC(F)(F)C[C@H]2C#N)cn1)C(=O)CN1CCN(CC(=O)[O-])CCN(CC(=O)[O-])CCN(CC(=O)[O-])CC1.[Ga+3] [Ga-AV02053]
IC50 (recombinant human FAP): 187 ± 52 nM

More lines, main results first:

IC50 (recombinant human FAP): 17.1 ± 4.6 nM
SMILES: CN(CCN(C)c1cc(C(=O)NCC(=O)N2CC(F)(F)C[C@H]2C#N)ccn1)C(=O)CN1CCN(CC(=O)[O-])CCN(CC(=O)[O-])CCN(CC(=O)[O-])CC1.[Ga+3] [Ga-AV02070]

LogD7.4 [1]: −3.45 ± 0.10
average uptake in all other collected organs/tissues (except tumor and kidneys) [2]: < 0.6 %ID/g
average uptake in other major organs with vs without co-injection of FAPI-04 [2]: no significant difference
blood uptake [2]: 0.36 ± 0.05 %ID/g
bone uptake [2]: 0.23 ± 0.06 %ID/g
muscle uptake [2]: 0.19 ± 0.10 %ID/g
tumor-to-blood uptake ratio [2]: 22.9 ± 10.1
tumor-to-bone uptake ratio [2]: 34.3 ± 7.35
tumor-to-muscle uptake ratio [2]: 45.7 ± 9.88
average kidney uptake [2]: 1.35–1.85 %ID/g
tumor uptake [2]: 7.93 ± 1.88 %ID/g
average tumor uptake with co-injection of FAPI-04 [2]: 0.21 %ID/g
SMILES: CN(CCN(C)c1cc(C(=O)NCC(=O)N2CC(F)(F)C[C@H]2C#N)ccn1)C(=O)CN1CCN(CC(=O)[O-])CCN(CC(=O)[O-])CCN(CC(=O)[O-])CC1.[68Ga+3] [[^68Ga]Ga-AV02070]
reduction of average tumor uptake by co-injection of FAPI-04 [2]: 97%
excretion pathway [3]: excreted mainly through the renal pathway

LogD7.4 [1]: −1.02 ± 0.35
SMILES: N#C[C@@H]1CC(F)(F)CN1C(=O)CNC(=O)c1ccnc2ccc(OCCCN3CCN(C(=O)CN4CCN(CC(=O)[O-])CCN(CC(=O)[O-])CCN(CC(=O)[O-])CC4)CC3)cc12.[68Ga+3] [[^68Ga]Ga-FAPI-04]
blood uptake ([4]; obtained previously): 1.07 ± 0.08 %ID/g
bone uptake ([4]; obtained previously): 3.36 ± 1.09 %ID/g
muscle uptake ([4]; obtained previously): 0.67 ± 0.05 %ID/g
tumor-to-blood uptake ratio ([4]; obtained previously): 11.7 ± 2.04
tumor-to-bone uptake ratio ([4]; obtained previously): 3.93 ± 1.16
tumor-to-muscle uptake ratio ([4]; obtained previously): 18.8 ± 4.09
tumor uptake ([4]; HEK293T:hFAP tumor, previously reported): 12.5 ± 2.00 %ID/g

LogD7.4 [1]: −3.75 ± 0.16
average uptake in all other collected organs/tissues (except tumor and kidneys) [2]: < 0.6 %ID/g
average uptake in other major organs with vs without co-injection of FAPI-04 [2]: no significant difference
blood uptake [2]: 0.22 ± 0.04 %ID/g
bone uptake [2]: 0.14 ± 0.02 %ID/g
muscle uptake [2]: 0.12 ± 0.05 %ID/g
tumor-to-blood uptake ratio [2]: 25.2 ± 1.97
tumor-to-bone uptake ratio [2]: 38.1 ± 5.03
tumor-to-muscle uptake ratio [2]: 51.2 ± 19.8
average kidney uptake [2]: 1.35–1.85 %ID/g
tumor uptake [2]: 5.6 ± 1.12 %ID/g
average tumor uptake with co-injection of FAPI-04 [2]: 0.30 %ID/g
SMILES: CN(CCN(C)c1ccc(C(=O)NCC(=O)N2CC(F)(F)C[C@H]2C#N)cn1)C(=O)CN1CCN(CC(=O)[O-])CCN(CC(=O)[O-])CCN(CC(=O)[O-])CC1.[68Ga+3] [[^68Ga]Ga-AV02053]
reduction of average tumor uptake by co-injection of FAPI-04 [2]: 95%
excretion pathway [3]: excreted mainly through the renal pathway
